Laboratory results taken from a melting point compilation (Tetko et al.; mined from patent text by program, amines drawn as free bases though some values may be those of a salt).

Compound	melting point [°C]
Clc1ccc(C(c2ccc(Cl)cc2)N2CCN(C(c3ccccc3)c3c[nH]c4cccc(Cl)c34)CC2)cc1 (stereo not drawn)	100 to 105
CC(=O)c1ccccc1OCc1cccc(S(N)(=O)=O)c1	124 to 125
CCCn1c(=O)cc(N)n(Cc2ccccc2)c1=O	189 to 192
CCOCc1c[nH]c(=O)c(N)c1Sc1cc(C)cc(C)c1	149 to 150
C=CCN1CC(c2ccccc2)=C(O)C1=O	178 to 183
CCCCOc1cc(C(=O)NCCN(CC)CC)cc(S(N)(=O)=O)c1Cc1ccccc1	163
CCCNc1nc(OC)ccc1[N+](=O)[O-]	69 to 70
CCN=C(NCc1ccccc1)NN=Cc1c(Cl)cccc1Cl	101 to 103
CCOC(=O)c1sc2cc(OCc3cccnc3)ccc2c1Sc1ccccc1	94 to 95
CSc1ccc2c(c1)CCN2C(=O)Nc1cccnc1	160 to 162
C=C(C)n1c(=O)n(-c2ccc(CCNC[C@H](O)COc3ccc(O)cc3)cc2)c2ncccc21	62 to 64
S=C(NCCCN1CCCC1)NCCN(Cc1ccc(Cl)c(Cl)c1)c1ccc(Br)cn1	123 to 125
Cc1nc(C)c(Cl)c(NCc2ccc(Oc3ccc4ncc([N+](=O)[O-])n4n3)c(OC(F)F)c2)n1	191 to 194
O=C(NS(=O)(=O)c1ccccc1)c1ccc(I)cc1	192 to 193
O=C(O)C(CCC1=CCCCC1)Oc1ccc(-c2ccc(Cl)s2)cc1 (stereo not drawn)	136 to 138
Cc1nc(N2CCN(Cc3ccccc3)S2(=O)=O)sc1C(=O)NCc1ccccc1	135 to 137
O=C(C[N+](=O)[O-])c1ccc2c(c1)CCN2	172 to 174
COc1cc(OC)cc(-c2nc(C)nn2-c2ccc(S(N)(=O)=O)cn2)c1	195 to 196
Cc1csc(C2=NOCCO2)c1S(N)(=O)=O	155
CSc1nc(=O)n(C)cc1F	154
CC(C)C[C@H](NC(=O)OCc1ccccc1)C(=O)N[C@@H](CC(N)=O)C(=O)NC(Cc1ccccc1)C(O)C(Cc1ccccc1)NC(=O)OC(C)(C)C (stereo partly drawn)	192 to 194

Continued, values first:

melting point [°C]	Compound
149 to 151	COc1cc2c(cc1OC)CN(c1nc(Cl)nc(N3CCc4cc(OC)c(OC)cc4C3)n1)CC2
247 to 248	COc1ccc2nc3sc(C(=O)O)cn3c(=O)c2c1
151 to 152	O=C(O)COc1ccc(SCc2ccc(OCc3ccc(Cl)c(C(F)(F)F)c3)cc2)c2c1CCC2
158 to 161	COc1cc2ccc(CC(=S)N3CCOCC3)cc2cc1OC
159 to 160	CC1(CN2CCN(c3ccc(C(F)(F)F)cc3)CC2)Cn2cc([N+](=O)[O-])nc2O1 (stereo not drawn)
72 to 76	O=C1c2ccccc2C(=O)N1CCCCCCN1CCC(C2(c3ccc(F)cc3)OCCO2)CC1
159 to 160	CCCCCc1cccc2c1C(=O)N(OC1C(CO)OC(n3cnc4c(N)ncnc43)C1O)C2=O (stereo not drawn)
135 to 136	CN1CCCC1=NC(=O)Nc1cccc(Cl)c1
190 to 192	Cc1ncncc1NC(=O)Nc1ccc(-n2nc(C(F)(F)F)cc2C2CC2)cc1
74 to 76	COC(=O)C(=CN1CCCC1)C(=O)c1cc(F)c(Cl)cc1Cl
188 to 192	Cc1ccc2c(c1)C1(CNC(=O)C1)CC2=O (stereo not drawn)
232 to 234	CC(O)C#Cc1cc(F)c2ncc(C(=O)NCc3ccc(Cl)cc3)c(O)c2c1 (stereo not drawn)
101 to 103	Cc1ccc(S(=O)(=O)OCC2CN(C(=O)Oc3ccccc3)CCO2)cc1 (stereo not drawn)
137 to 140	COc1ccc(OC)c(C(=O)Nc2ccc(N3CCCC3)cc2C(C)=O)c1
184 to 193	O=C1CC(c2ccc3oc4c(c3c2)CCCC4)CC(=O)N1
192	O=C(NC(=O)c1c(F)cccc1F)Nc1cc(C(F)(F)F)c(F)cc1Cl
208 to 209	CNC1([C@@H]2CCN(c3c(F)cc4c(=O)c(C(=O)O)cn([C@@H]5C[C@@H]5F)c4c3OC)C2)CC1
